Data set [1] addresses T1, Kappa-type opioid receptor (Homo sapiens, UniProt P41145). As to the kind of experiment: Agonist activity at human wild-type opioid-kappa 1 receptor expressed in CHO-K1 cells assessed as cAMP level by HTRF assay. It is filed as functional, cell-based. (In general: cAMP levels reflect the balance of adenylyl cyclase and phosphodiesterase activity.)
The target of data set [2] is 5-hydroxytryptamine receptor 1A (Homo sapiens, UniProt P08908). The data set is described as follows: Antagonist activity at human 5-HT1A receptor expressed in CHO-K1 cells assessed as seretonin-induced cAMP level by HTRF assay. Type of data set: functional, cell-based.
Sequence of 5-hydroxytryptamine receptor 1A (P08908 whole entry): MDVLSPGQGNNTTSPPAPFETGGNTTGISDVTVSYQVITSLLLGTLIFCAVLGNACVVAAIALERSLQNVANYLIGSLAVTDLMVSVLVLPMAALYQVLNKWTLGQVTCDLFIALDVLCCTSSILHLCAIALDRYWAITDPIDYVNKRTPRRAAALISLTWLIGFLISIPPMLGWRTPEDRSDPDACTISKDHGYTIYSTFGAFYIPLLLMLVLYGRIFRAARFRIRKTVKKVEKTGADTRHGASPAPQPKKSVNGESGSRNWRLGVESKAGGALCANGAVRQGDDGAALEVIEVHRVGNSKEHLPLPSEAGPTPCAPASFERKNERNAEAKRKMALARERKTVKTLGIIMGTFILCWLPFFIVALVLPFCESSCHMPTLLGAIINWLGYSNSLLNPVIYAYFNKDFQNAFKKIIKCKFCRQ
The target in a further data set is Vasopressin V1a receptor (Homo sapiens, UniProt P37288). The data set is described as follows: Antagonist activity at human wild-type AVPR1A receptor expressed in CHO-K1 cells assessed as vassopressin-induced calcium by FDSS assay. Type of data set: functional, cell-based.
Sequence of Vasopressin V1a receptor (P37288 whole entry): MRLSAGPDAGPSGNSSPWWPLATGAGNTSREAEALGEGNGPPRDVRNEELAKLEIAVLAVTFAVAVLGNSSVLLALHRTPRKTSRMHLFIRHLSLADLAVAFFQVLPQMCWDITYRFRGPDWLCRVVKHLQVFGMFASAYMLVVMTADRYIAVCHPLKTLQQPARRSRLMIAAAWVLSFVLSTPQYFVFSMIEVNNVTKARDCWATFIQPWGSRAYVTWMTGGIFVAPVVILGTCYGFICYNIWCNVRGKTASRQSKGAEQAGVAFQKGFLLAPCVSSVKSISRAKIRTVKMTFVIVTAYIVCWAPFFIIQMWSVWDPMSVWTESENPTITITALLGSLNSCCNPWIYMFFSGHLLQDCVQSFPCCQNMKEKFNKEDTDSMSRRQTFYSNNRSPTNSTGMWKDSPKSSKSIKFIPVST
In data set [3] the target is T2, Alpha-2C adrenergic receptor (Homo sapiens, UniProt P18825).
T2 sequence (P18825 whole entry): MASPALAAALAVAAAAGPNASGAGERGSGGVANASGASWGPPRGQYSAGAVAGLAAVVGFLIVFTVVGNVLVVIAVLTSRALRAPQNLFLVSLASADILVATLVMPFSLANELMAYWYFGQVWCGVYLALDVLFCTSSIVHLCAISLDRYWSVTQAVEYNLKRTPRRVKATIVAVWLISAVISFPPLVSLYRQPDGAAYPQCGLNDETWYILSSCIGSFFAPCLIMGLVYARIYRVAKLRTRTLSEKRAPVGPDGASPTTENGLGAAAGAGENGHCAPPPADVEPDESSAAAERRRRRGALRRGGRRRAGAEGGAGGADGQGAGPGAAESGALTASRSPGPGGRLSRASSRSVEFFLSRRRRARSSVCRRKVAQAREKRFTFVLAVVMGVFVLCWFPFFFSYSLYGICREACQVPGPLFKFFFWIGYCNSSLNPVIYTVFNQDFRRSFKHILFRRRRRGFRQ
As to the kind of experiment: Antagonist activity at human wild-type alpha 2C receptor expressed in CHO-K1 cells assessed as epinephrine-induced cAMP by HTRF assay. Type of data set: functional, cell-based. For orientation: TR-FRET usually uses a lanthanide donor and a delayed reading to cut background.

A short description of data set [4]: Ratio of drug level in brain to plasma in Swiss mouse at 5 mg/kg, sc. It is filed as ADME, organism-based. As to conditions: read-out: BPR.
In data set [5] the target is T3, Cholecystokinin receptor type A (Homo sapiens, UniProt P32238).
T3 sequence (P32238 whole entry): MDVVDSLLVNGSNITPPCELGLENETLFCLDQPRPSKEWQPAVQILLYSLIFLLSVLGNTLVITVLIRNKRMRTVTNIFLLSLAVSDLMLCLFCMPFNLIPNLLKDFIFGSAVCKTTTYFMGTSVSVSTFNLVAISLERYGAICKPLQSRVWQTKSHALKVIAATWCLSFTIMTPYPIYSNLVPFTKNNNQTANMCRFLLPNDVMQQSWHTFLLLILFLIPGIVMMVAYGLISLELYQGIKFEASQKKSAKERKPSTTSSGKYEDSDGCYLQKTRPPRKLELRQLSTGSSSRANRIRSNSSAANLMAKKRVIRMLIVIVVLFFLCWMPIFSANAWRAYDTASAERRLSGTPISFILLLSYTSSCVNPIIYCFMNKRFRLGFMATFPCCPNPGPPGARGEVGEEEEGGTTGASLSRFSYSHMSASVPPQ
As to the kind of experiment: Antagonist activity at human wild-type CCKA receptor expressed in CHO-K1 cells assessed as CCK8-induced calcium by FDSS assay. It is filed as functional, cell-based.

For a further data set, the target named is T4, Cytochrome P450 1A2 (Homo sapiens, UniProt P05177).
T4 sequence (P05177 whole entry): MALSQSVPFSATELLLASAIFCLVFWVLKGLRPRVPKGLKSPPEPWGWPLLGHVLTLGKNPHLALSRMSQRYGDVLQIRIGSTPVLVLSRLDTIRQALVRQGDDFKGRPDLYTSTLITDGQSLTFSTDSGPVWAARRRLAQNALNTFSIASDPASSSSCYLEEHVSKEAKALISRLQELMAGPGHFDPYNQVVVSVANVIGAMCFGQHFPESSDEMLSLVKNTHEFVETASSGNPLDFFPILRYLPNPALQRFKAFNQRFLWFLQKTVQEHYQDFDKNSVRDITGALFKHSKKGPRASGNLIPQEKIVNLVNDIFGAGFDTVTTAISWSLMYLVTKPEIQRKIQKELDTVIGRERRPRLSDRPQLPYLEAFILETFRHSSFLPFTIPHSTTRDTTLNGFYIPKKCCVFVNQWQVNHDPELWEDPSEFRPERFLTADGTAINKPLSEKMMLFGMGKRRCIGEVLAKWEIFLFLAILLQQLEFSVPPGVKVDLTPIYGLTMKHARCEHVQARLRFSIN
As to the kind of experiment: Inhibition of human CYP1A2 by LC-MS analysis. Type of data set: ADME.

For data set [6], the target named is Beta-2 adrenergic receptor (Homo sapiens, UniProt P07550). The data set is described as follows: Antagonist activity at human beta2 receptor expressed in CHO-K1 cells assessed as isoproterenol-induced cAMP level by HTRF assay. It is filed as functional, cell-based.
Sequence of Beta-2 adrenergic receptor (P07550 whole entry): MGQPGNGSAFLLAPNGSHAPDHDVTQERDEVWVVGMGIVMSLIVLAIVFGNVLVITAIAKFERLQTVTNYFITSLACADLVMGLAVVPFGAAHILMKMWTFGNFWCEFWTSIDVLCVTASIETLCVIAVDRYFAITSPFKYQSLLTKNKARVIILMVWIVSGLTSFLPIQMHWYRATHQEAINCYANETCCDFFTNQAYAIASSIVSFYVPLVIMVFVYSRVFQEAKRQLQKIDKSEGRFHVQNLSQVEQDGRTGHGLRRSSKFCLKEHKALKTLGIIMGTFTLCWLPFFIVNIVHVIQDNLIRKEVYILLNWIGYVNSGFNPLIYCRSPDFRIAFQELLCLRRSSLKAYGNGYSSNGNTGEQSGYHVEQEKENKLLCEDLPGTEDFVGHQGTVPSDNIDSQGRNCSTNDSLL
Data set [7] addresses T5, Alpha-1A adrenergic receptor (Homo sapiens, UniProt P35348).
T5 sequence (P35348 whole entry): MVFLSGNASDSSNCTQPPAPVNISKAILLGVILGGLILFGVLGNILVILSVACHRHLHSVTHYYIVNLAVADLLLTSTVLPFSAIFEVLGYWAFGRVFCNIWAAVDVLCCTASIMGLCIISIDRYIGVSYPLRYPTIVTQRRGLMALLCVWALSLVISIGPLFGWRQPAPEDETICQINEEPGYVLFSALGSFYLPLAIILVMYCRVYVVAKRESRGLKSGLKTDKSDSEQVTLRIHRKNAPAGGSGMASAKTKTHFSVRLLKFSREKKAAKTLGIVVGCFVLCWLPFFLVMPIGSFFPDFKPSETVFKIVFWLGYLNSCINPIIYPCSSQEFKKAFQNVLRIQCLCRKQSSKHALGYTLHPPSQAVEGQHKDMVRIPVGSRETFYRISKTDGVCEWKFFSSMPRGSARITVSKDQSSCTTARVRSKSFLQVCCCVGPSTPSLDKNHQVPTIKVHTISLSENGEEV
As to the kind of experiment: Antagonist activity at human wild-type alpha 1A receptor expressed in CHO cells assessed as EP-induced calcium by HTRF assay. It is filed as functional, cell-based.

Data set [8] has as its target T6, Mu-type opioid receptor (Homo sapiens, UniProt P35372). The data set is described as follows: Agonist activity at human wild-type opioid-mu receptor expressed in CHO-K1 cells assessed as cAMP level by HTRF assay. It is filed as functional, cell-based.
Data set [9] has as its target T6, Mu-type opioid receptor. The data set is described as follows: Antagonist activity at human wild-type opioid-mu receptor expressed in CHO-K1 cells assessed as DAMGO-induced cAMP by HTRF assay. Type of data set: functional, cell-based.
Data set [10] has as its target 5-hydroxytryptamine receptor 1B (Homo sapiens, UniProt P28222). The data set is described as follows: Agonist activity at human 5-HT1B receptor expressed in CHO-K1 cells assessed as cAMP level by HTRF assay. It is filed as functional, cell-based.
The nature of data set [11]: Chemical stability of compound in 0.1N HCL assessed as compound remaining at 10 mg/ml after 1 day. As to conditions: read-out: Stability. It is filed as physicochemical.
Data set [12] concerns the target T5, Alpha-1A adrenergic receptor. The data set is described as follows: Agonist activity at human wild-type alpha 1A receptor expressed in CHO cells assessed as calcium level by HTRF assay. Type of data set: functional, cell-based.
Data set [13] addresses T1, Kappa-type opioid receptor. The data set is described as follows: Antagonist activity at human wild-type opioid-kappa 1 receptor expressed in CHO-K1 cells assessed as U50488-induced cAMP by HTRF assay. It is filed as functional, cell-based.
Another data set concerns the target Cytochrome P450 2C9 (Homo sapiens, UniProt P11712). The data set is described as follows: Inhibition of human CYP2C9 by LC-MS analysis. It is filed as ADME.

T1 sequence (P41145 whole entry): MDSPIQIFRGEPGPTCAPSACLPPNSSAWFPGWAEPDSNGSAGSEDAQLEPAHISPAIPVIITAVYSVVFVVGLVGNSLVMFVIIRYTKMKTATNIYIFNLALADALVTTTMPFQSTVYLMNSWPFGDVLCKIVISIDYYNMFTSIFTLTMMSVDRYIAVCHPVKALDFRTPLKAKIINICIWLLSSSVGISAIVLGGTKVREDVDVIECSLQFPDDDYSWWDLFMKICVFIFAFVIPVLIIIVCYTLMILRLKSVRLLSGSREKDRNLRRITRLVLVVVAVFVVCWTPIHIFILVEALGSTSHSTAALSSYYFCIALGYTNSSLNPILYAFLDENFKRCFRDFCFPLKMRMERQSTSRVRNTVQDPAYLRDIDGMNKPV
T6 sequence (P35372 whole entry): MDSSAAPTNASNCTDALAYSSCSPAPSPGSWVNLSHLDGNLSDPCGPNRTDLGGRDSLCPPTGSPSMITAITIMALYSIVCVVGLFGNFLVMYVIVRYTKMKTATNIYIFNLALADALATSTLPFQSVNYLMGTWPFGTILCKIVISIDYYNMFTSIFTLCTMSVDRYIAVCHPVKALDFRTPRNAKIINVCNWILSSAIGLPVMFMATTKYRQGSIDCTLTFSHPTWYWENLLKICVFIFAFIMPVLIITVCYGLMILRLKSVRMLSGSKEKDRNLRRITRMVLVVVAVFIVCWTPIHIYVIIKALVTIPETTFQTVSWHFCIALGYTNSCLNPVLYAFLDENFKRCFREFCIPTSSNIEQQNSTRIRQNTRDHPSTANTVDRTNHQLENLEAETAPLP
Sequence of Cytochrome P450 2C9 (P11712 whole entry): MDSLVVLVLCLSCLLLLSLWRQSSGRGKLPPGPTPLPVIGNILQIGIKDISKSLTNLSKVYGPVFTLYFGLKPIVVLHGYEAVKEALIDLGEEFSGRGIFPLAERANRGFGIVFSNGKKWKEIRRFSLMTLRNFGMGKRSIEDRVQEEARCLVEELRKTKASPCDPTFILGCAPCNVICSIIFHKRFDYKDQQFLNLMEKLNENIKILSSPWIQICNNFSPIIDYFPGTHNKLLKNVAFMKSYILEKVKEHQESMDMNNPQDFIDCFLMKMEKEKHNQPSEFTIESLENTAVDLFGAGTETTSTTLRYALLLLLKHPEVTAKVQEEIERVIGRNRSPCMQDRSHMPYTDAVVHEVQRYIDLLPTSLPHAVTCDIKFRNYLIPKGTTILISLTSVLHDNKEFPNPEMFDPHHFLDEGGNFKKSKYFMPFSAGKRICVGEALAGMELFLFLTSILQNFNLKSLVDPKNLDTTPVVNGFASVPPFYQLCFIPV
Sequence of 5-hydroxytryptamine receptor 1B (P28222 whole entry): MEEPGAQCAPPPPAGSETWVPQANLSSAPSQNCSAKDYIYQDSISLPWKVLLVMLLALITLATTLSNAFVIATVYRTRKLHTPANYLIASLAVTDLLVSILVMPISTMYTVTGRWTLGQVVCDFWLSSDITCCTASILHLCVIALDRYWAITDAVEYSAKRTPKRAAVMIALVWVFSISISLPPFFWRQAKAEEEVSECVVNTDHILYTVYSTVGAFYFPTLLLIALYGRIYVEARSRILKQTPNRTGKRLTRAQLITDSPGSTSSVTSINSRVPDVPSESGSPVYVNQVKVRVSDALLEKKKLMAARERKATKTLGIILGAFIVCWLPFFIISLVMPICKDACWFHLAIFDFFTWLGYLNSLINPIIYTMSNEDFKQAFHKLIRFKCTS

By EC50 is commonly meant the midpoint of the concentration-response curve. The term IC50 denotes the point on the concentration scale where inhibition reaches its midpoint. On to `CB1C=Cc2cccc(OCC(O)CNC(C)C)c2N1` (configuration not stated), for which the EC50 (in data set [1]; on Mu-type opioid receptor [8]; in [10]; in data set [12]) was > 5.01 µM each time. Besides, the IC50 in [2] was > 5.01 µM; on Vasopressin V1a receptor, > 5.01 µM; in data set [3], > 5.01 µM; in data set [5], > 5.01 µM; on Cytochrome P450 1A2, 3.16 µM; in data set [6] it was 0.501 µM. Besides, the IC50 is > 5.01 µM in [7], > 5.01 µM at Mu-type opioid receptor [9], > 5.01 µM in [13] and > 10 µM at Cytochrome P450 2C9. Moreover, the Kp in [4] worked out at 13. In addition, in data set [11], the remaining at 24 h, 10 mg/ml was determined as 0%.
Take `CB1C=Cc2c(cccc2OCC(O)CN(C)C)N1` (configuration not stated): the EC50 (in data set [1]; on Mu-type opioid receptor [8]; in data set [10]; in data set [12]) was > 5.01 µM in each case. For the same molecule, the IC50 in [2] is 2 µM; at Vasopressin V1a receptor, > 5.01 µM; in data set [3], > 5.01 µM; in [5], > 5.01 µM; on Cytochrome P450 1A2 it was > 10 µM; in data set [6], 0.1 µM. Also, the half-maximal inhibitory concentration (IC50) is > 5.01 µM in data set [7], > 5.01 µM at Mu-type opioid receptor [9], > 5.01 µM in data set [13] and > 10 µM against Cytochrome P450 2C9. Besides, the Kp in [4] was 19. Also, in data set [11], the remaining at 24 h, 10 mg/ml was found to be 0%.

(Values after ChEMBL document CHEMBL3734721 (J Med Chem, 2015).)
